Source: patent US11090304B2 (Amgen Inc., priority 2018, dated 2021)

How the values were obtained:
[1] = molecular target: GDP-bound KRAS protein (aa 1-169), containing both G12C and C118A amino acid substitutions (Homo sapiens, UniProt P01116, C118A/G12C); experiment: Coupled nucleotide exchange assay (SOS-mediated, AlphaScreen); format: biochemical; details: 5 min compound pre-incubation
[2] = test system: Phosphorylation of ERK1/2 in MIA PaCa-2 cells; experiment: Phospho-ERK1/2 MSD assay in MIA PaCa-2 cells; format: cell-based; details: Homo sapiens, MIA PaCa-2, 2 h, read-out: p-ERK IC50 (2 h; MIA PaCa-2), 2 h compound treatment
How it was run: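 IC50 comes from a 4-parameter logistic fit of MSD phospho-ERK1/2 signal in lysates. Before lysis, MIA PaCa-2 or A549 cells were exposed to titrated compound for 2 or 4 h at 37 °C, followed by a 10 min 10 ng/mL EGF stimulus.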

Chain of GDP-bound KRAS protein (aa 1-169), containing both G12C and C118A amino acid substitutions (P01116 1-169 isoform P01116-2 G12C/C118A): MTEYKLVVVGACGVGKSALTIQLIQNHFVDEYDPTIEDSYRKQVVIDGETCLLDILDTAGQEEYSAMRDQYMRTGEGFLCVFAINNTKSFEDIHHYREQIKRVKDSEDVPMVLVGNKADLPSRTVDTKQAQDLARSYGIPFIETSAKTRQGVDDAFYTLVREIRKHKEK

**Q.** How did the “Coupled exchange IC50 (5 min)” value [1] turn out when `C=CC(=O)N1CCN(c2nc(=O)n(-c3ncc(C#N)cc3CC)c3nc(-c4c(O)cccc4F)c(Cl)cc23)[C@@H](C)C1` [Example 54-53, 6-(6-chloro~7-(2-fluoro-6-hydroxyphenyl)-4-((2S)-2-methyl-4-(2-propenoyl)-1-piperazinyl)-2-oxopyrido[2,3-d]pyrimidin-1(2H)-yl)-5-ethyl-3-pyridine-carbonitrile] was run?
**A.** 0.193 | nda μM

**Q.** And the IC50 [2]?
**A.** 593 nM

**Q.** With `C=CC(=O)N1CCN(c2nc(=O)n(-c3cncnc3C3(C)CC3)c3nc(-c4ccccc4F)c(Cl)cc23)[C@@H](C)C1` [Example 54-54, 6-chloro-7-(2-fluorophenyl)-1-(4-(1-methyl-cyclopropyl)-5-pyrimidinyl)-4-((2S)-2-methyl-4-(2-propenoyl)-1-piperazinyl) pyrido[2,3-d]pyrimidin-2(1H)-one] as the compound, how does the “Coupled exchange IC50 (5 min)” value [1] read?
**A.** 0.377 | nda μM

**Q.** And the IC50 [2]?
**A.** 360 nM

**Q.** Which results are given for `C=CC(=O)N1CCN(c2nc(=O)n(-c3cncnc3C3(C)CC3)c3nc(-c4c(O)cccc4F)c(Cl)cc23)[C@@H](C)C1` [Example 54-55, 6-chloro-7-(2-fluoro-6-hydroxyphenyl)-1-(4-(1-methyl-cyclopropyl)-5-pyrimidinyl)-4-((2S)-2-methyl-4-(2-propenoyl)-1-piperazinyl) pyrido[2,3-d]pyrimidin-2(1H)-one]?
**A.** Coupled exchange IC50 (5 min) [1]: 0.133 | nda μM; IC50 [2]: 578 nM

**Q.** How did the “Coupled exchange IC50 (5 min)” value [1] turn out when `C=CC(=O)N1CCN(c2nc(=O)n(-c3c(C)cnn3C(C)C)c3nc(-c4ccc(F)cc4F)c(Cl)cc23)[C@@H](C)C1` [Example 54-71, 6-chloro-7-(2,4-difluorophenyl)-1-(4-methyl-1-(2-propanyl)-1H-pyrazol-5-yl)-4-((2S)-2-methyl-4-(2-propenoyl)-1-piperazinyl) pyrido[2,3-d]pyrimidin-2(1H)-one] was run?
**A.** 0.174 | nda μM

**Q.** What about the IC50 [2] of the same compound?
**A.** 164 nM

**Q.** `C=CC(=O)N1CCN(c2nc(=O)n(-c3c(C(C)C)n[nH]c3C(C)C)c3nc(-c4ccccc4F)c(Cl)cc23)[C@@H](C)C1` [Example 54-72, 6-chloro-1-(3,5-di(2-propanyl)-1H-pyrazol-4-yl)-7-(2-fluorophenyl)-4-((2S)-2-methyl-4-(2-propenoyl)-1-piperazinyl) pyrido[2,3-d]pyrimidin-2(1H)-one] was tested. Which “Coupled exchange IC50 (5 min)” value [1] did it give?
**A.** 0.108 | nda μM

**Q.** What about the IC50 [2] of the same compound?
**A.** 183 nM

**Q.** How did the “Coupled exchange IC50 (5 min)” value [1] turn out when `C=CC(=O)N1CCN(c2nc(=O)n(-c3c(OC)cccc3C(C)C)c3nc(-c4c(O)cccc4F)c(Cl)cc23)[C@@H](C)C1` [Example 54-73, 6-chloro-7-(2-fluoro-6-hydroxy-phenyl)-1-(2-methoxy-6-(2-propanyl)phenyl)-4-((2S)-2-methyl-4-(2-propenoyl)-1-piperazinyl) pyrido[2,3-d]pyrimidin-2(1H)-one] was run?
**A.** 0.062 | nda μM

**Q.** And the IC50 [2]?
**A.** 64 nM

**Q.** With `C=CC(=O)N1CCN(c2nc(=O)n(-c3ccccc3-c3ccccc3)c3nc(-c4c(O)cccc4F)c(Cl)cc23)[C@@H](C)C1` [Example 54-74, 1-([biphenyl]-2-yl)-6-chloro-7-(2-fluoro-6-hydroxyphenyl)-4-((2S)-2-methyl-4-(2-propenoyl)-1-piperazinyl) pyrido[2,3-d]pyrimidin-2(1H)-one] as the compound, how does the “Coupled exchange IC50 (5 min)” value [1] read?
**A.** 0.582 | nda μM

**Q.** What about the IC50 [2] of the same compound?
**A.** 926 nM

**Q.** With `C=CC(=O)N1CCN(c2nc(=O)n(-c3ccccc3C(C)C)c3nc(-c4ccc(F)cc4O)c(Cl)cc23)[C@@H](C)C1` [Example 54-77, 6-chloro-7-(4-fluoro-2-hydroxy-phenyl)-4-((2S)-2-methyl-4-(2-propenoyl)-1-piperazinyl)-1-(2-(2-propanyl)phenyl)pyrido [2,3-d]pyrimidin-2(1H)-one] as the compound, how does the “Coupled exchange IC50 (5 min)” value [1] read?
**A.** 0.218 | nda μM

**Q.** And the IC50 [2]?
**A.** 158 nM

**Q.** What does the source list for `C=CC(=O)N1CCN(c2nc(=O)n(-c3ccccc3C(C)C)c3nc(-c4cc(F)ccc4O)c(Cl)cc23)[C@@H](C)C1` [Example 54-78, 6-chloro-7-(5-fluoro-2-hydroxyphenyl)-4-((2S)-2-methyl-4-(2-propenoyl)-1-piperazinyl)-1-(2-(2-propanyl)phenyl)pyrido [2,3-d]pyrimidin-2(1H)-one]?
**A.** Coupled exchange IC50 (5 min) [1]: 0.326 | nda μM; IC50 [2]: 171 nM

**Q.** How did the “Coupled exchange IC50 (5 min)” value [1] turn out when `C=CC(=O)N1CCN(c2nc(=O)n(-c3ccccc3C(C)C)c3nc(-c4c(O)cccc4Cl)c(Cl)cc23)[C@@H](C)C1` [Example 54-79, 6-chloro-7-(2-chloro-6-hydroxy-phenyl)-4-((2S)-2-methyl-4-(2-propenoyl)-1-piperazinyl)-1-(2-(2-propanyl)phenyl)pyrido [2,3-d]pyrimidin-2(1H)-one] was run?
**A.** 0.072 | nda μM

**Q.** And the IC50 [2]?
**A.** 98 nM

**Q.** What does the source list for `C=CC(=O)N1CCN(c2nc(=O)n(-c3ccccc3C(C)C)c3nc(-c4cc(OC)ccc4Cl)c(Cl)cc23)[C@@H](C)C1` [Example 54-89, 6-chloro-7-(2-chloro-5-methoxy-phenyl)-4-((2S)-2-methyl-4-(2-propenoyl)-1-piperazinyl)-1-(2-(2-propanyl)phenyl)pyrido [2,3-d]pyrimidin-2(1H)-one]?
**A.** Coupled exchange IC50 (5 min) [1]: 0.271 | nda μM; IC50 [2]: 212 nM

**Q.** With `C=CC(=O)N1CCN(c2nc(=O)n(-c3ccccc3C(C)C)c3nc(-c4cc(O)ccc4Cl)c(Cl)cc23)[C@@H](C)C1` [Example 54-90, 6-chloro-7-(2-chloro-5-hydroxy-phenyl)-4-((2S)-2-methyl-4-(2-propenoyl)-1-piperazinyl)-1-(2-(2-propanyl)phenyl)pyrido [2,3-d]pyrimidin-2(1H)-one] as the compound, how does the “Coupled exchange IC50 (5 min)” value [1] read?
**A.** 0.105 | nda μM

**Q.** What about the IC50 [2] of the same compound?
**A.** 121 nM

**Q.** What does the source list for `C=CC(=O)N1CCN(c2nc(=O)n(-c3ccccc3C(C)C)c3nc(-c4cc(O)cc(Cl)c4Cl)c(Cl)cc23)[C@@H](C)C1` [Example 54-91, 6-chloro-7-(2,3-dichloro-5-hydroxy-phenyl)-4-((2S)-2-methyl-4-(2-propenoyl)-1-piperazinyl)-1-(2-(2-propanyl)phenyl)pyrido [2,3-d]pyrimidin-2(1H)-one]?
**A.** Coupled exchange IC50 (5 min) [1]: 0.033 | nda μM; IC50 [2]: 39 nM

**Q.** Which “Coupled exchange IC50 (5 min)” value [1] does the source give for `C=CC(=O)N1CCN(c2nc(=O)n(-c3ccccc3C(C)C)c3nc(-c4cc(N)ncc4Cl)c(Cl)cc23)[C@@H](C)C1` [Example 54-95, 7-(2-amino-5-chloro-4-pyridinyl)-6-chloro-4-((2S)-2-methyl-4-(2-propenoyl)-1-piperazinyl)-1-(2-(2-propanyl)phenyl)pyrido [2,3-d]pyrimidin-2(1H)-one] here?
**A.** 0.756 | nda μM

**Q.** And the IC50 [2]?
**A.** 821 nM

**Q.** `C=CC(=O)N1CCN(c2nc(=O)n(-c3ccccc3C(C)C)c3nc(-c4cccnc4N)c(Cl)cc23)[C@@H](C)C1` [Example 54-96, 7-(2-amino-3-pyridinyl)-6-chloro-4-((2S)-2-methyl-4-(2-propenoyl)-1-piperazinyl)-1-(2-(2-propanyl)phenyl)pyrido [2,3-d]pyrimidin-2(1H)-one] was tested. Which “Coupled exchange IC50 (5 min)” value [1] did it give?
**A.** 0.676 | nda μM

**Q.** What about the IC50 [2] of the same compound?
**A.** 363 nM

**Q.** Which “Coupled exchange IC50 (5 min)” value [1] does the source give for `C=CC(=O)N1CCN(c2nc(=O)n(-c3ccccc3C3(C)CC3)c3nc(-c4c(O)cccc4F)c(Cl)cc23)[C@@H](C)C1` [Example 54-97, 6-chloro-7-(2-fluoro-6-hydroxyphenyl)-1-(2-(1-methylcyclopropyl)phenyl)-4-((2S)-2-methyl-4-(2-propenoyl)-1-piperazinyl) pyrido[2,3-d]pyrimidin-2(1H)-one] here?
**A.** 0.128 | nda μM

**Q.** What about the IC50 [2] of the same compound?
**A.** 256 nM
